Measurements published in patent publication EP4488278A1, “SUBSTITUTED PYRIDYL/PYRAZINYL DIHYDROPYRROLOTRIAZINE COMPOUNDS FOR COMBATTING PHYTOPATH-OGENIC FUNGI” (BASF SE, priority 2023, dated 2025).

Legend:
Botrytis cinerea [1] = test: Green house: preventative fungicidal control of Botrytis cinerea on leaves of green pepper; assay type: in vivo; conditions: 250 ppm active substance, green pepper plants sprayed to run-off one day before inoculation; assessed visually as % diseased leaf area after 5 days at 22 to 24°C; untreated plants 90% infected
Procedure: The compound was dissolved in a mixture of acetone and/or dimethylsulfoxide and the wetting agent/emulsifier Wettol, which is based on ethoxylated alkylphenoles, in a ratio (volume) solvent-emulsifier of 99 to 1 to give a total volume of 5 ml. Subsequently, water was added to total volume of 100 ml. This stock solution was then diluted with the described solvent-emulsifier-water mixture to the final concentration given in the table below. Young seedlings of green pepper were grown in pots to the 4 to 5 leaf stage. These plants were sprayed to run-off with previously described spray solution, containing the concentration of active ingredient or mixture mentioned in the table below. The next day the plants were inoculated with an aqueous biomalt or DOB solution containing the spore suspension of Botrytis cinerea. Then the plants were immediately transferred to a humid chamber. After 5 days at 22 to 24°C and a saturated relative humidity, the extent of fungal attack on the leaves was visually assessed as % diseased leaf area.

Botrytis cinerea [2] = test: Microtest: activity against the grey mold Botrytis cinerea in the microtiterplate test; assay type: cell-based; conditions: 31 ppm active substance; absorption at 405 nm 7 days after inoculation, 18°C; relative to active compound-free control (100%)
Procedure: The active compounds were formulated separately as a stock solution having a concentration of 10000 ppm in dimethyl sulfoxide.
The stock solutions were mixed according to the ratio, pipetted onto a micro titer plate (MTP) and diluted with water to the stated concentrations. A spore suspension of Botrci cinerea in an aqueous biomalt or yeast-bactopeptone-sodiumacetate solution was then added. The plates were placed in a water vapor-saturated chamber at a temperature of 18°C. Using an absorption photometer, the MTPs were measured at 405 nm 7 days after the inoculation.
The measured parameters were compared to the growth of the active compound-free control variant (100%) and the fungus-free blank value to determine the relative growth in % of the pathogens in the respective active compounds.

| SMILES | growth of the pathogen (Botrytis cinerea [1]) | growth of the pathogen (Botrytis cinerea [2]) |
| --- | --- | --- |
| Cc1cc(C2=NC(C)(C)N(C)n3cccc32)cnc1C(F)F [Ex-1, 4-(6-(difluoromethyl)-5-methylpyridin-3-yl)-1,2,2-trimethyl-1,2-dihydropyrrolo[2,1-f][1,2,4]triazine] | at most 7% | 0% |
| Cc1cc(C2=NC(C)(C)Nn3cccc32)cnc1C(F)F [Ex-2, 4-(6-(difluoromethyl)-5-methylpyridin-3-yl)-2,2-dimethyl-1,2-dihydropyrrolo[2,1-f][1,2,4]triazine] |  | 0% |
